Reference: patent publication US20240226026A1, “BRANCHED TAIL LIPID COMPOUNDS AND COMPOSITIONS FOR INTRACELLULAR DELIVERY OF THERAPEUTIC AGENTS” (ModernaTX, Inc., priority 2021, published 2024)

Assays:
[1] = Apparent pKa of lipid nanoparticles; type: physicochemical; conditions: Table 2a; nanoparticles comprising the lipid
[2] = Encapsulation efficiency (% EE) of lipid nanoparticles; type: physicochemical; conditions: nanoparticles comprising the lipid
Protocol: For nanoparticle compositions including an RNA, a QUANT-IT™ RIBOGREEN® RNA assay (Invitrogen Corporation Carlsbad, CA) can be used to evaluate the encapsulation of an RNA by the nanoparticle composition. The samples are diluted to a concentration of approximately 5 μg/mL in a TE buffer solution (10 mM Tris-HCl, 1 mM EDTA, pH 7.5). 50 μL of the diluted samples are transferred to a polystyrene 96 well plate and either 50 μL of TE buffer or 50 μL of a 2% Triton X-100 solution is added to the wells. The plate is incubated at a temperature of 37° C. for 15 minutes. The RIBOGREEN® reagent is diluted 1:100 in TE buffer, and 100 μL of this solution is added to each well. The fluorescence intensity can be measured using a fluorescence plate reader (Wallac Victor 1420 Multilablel Counter; Perkin Elmer, Waltham, MA) at an excitation wavelength of, for example, about 480 nm and an emission wavelength of, for example, about 520 nm. The fluorescence values of the reagent blank are subtracted from that of each of the samples and the percentage of free RNA is determined by dividing the fluorescence intensity of the intact sample (without addition of Triton X-100) by the fluorescence value of the disrupted sample (caused by the addition of Triton X-100).
The efficiency of encapsulation of a therapeutic and/or prophylactic describes the amount of therapeutic and/or prophylactic that is encapsulated or otherwise associated with a lipid nanoparticle (e.g., an empty LNP or a loaded LNP) after preparation, relative to the initial amount provided. The encapsulation efficiency is desired to be high (e.g., close to 100%). The encapsulation efficiency may be measured, for example, by comparing the amount of therapeutic and/or prophylactic in a solution containing a loaded LNP before and after breaking up the loaded LNP with one or more organic solvents or detergents. Fluorescence may be used to measure the amount of free therapeutic and/or prophylactic (e.g., RNA) in a solution. For the loaded LNPs formulated with lipids of the disclosure, the encapsulation efficiency of a therapeutic and/or prophylactic is at least 50%, for example 50%, 55%, 60%, 65%, 70%, 75%, 80%, 85%, 90%, 91%, 92%, 93%, 94%, 95%, 96%, 97%, 98%, 99%, or 100%. In some embodiments, the encapsulation efficiency is at least 80%. In some embodiments, the encapsulation efficiency is at least 90%. In some embodiments, the encapsulation efficiency of the therapeutic and/or prophylactic agent is between 80% and 100%.
(§1) Lipid nanoparticles (e.g., empty LNPs or loaded LNPs) including DSPC as a phospholipid, cholesterol as a structural lipid, PL-II (e.g., PEG-1) as a PEG lipid, and a lipid according to Formula (I-1), (I), (I-A), (I-A1), (I-A2), (I-A3), or (I-A4) were prepared. In some embodiments, the lipid nanoparticles further included rhodamine-DOPE as a fluorescent lipid. Tables 2a, 2b, and 3 summarize the characteristics of the formulations.

[3] = Lipid nanoparticle surface hydrophobicity by Generalized Polarization by Laurdan (N-GP); type: physicochemical; conditions: Table 2a; Laurdan; higher N-GP indicates a less polar surface
Source text: Surface hydrophobicity of nanoparticles of the disclosure can be measured by Generalized Polarization by Laurdan (GPL). In this method, Laurdan, a fluorescent aminonaphthalene ketone lipid, is post-inserted into the nanoparticle surface and the fluorescence spectrum of Laurdan is collected to determine the normalized Generalized Polarization (N-GP). In some embodiments, nanoparticles formulated with lipids of the disclosure have a surface hydrophobicity expressed as N-GP of between about 0.5 and about 1.5. For example, in some embodiments, nanoparticles formulated with lipids of the disclosure have a surface hydrophobicity expressed as N-GP of about 0.5, about 0.6, about 0.7, about 0.8, about 0.9, about 1.0, about 1.1, about 1.2, about 1.3, about 1.4, or about 1.5. In some embodiments, nanoparticles formulated with lipids of the disclosure have a surface hydrophobicity expressed as N-GP of about 1.0 or about 1.1.

[4] = Particle size (diameter) and polydispersity index of lipid nanoparticles; type: physicochemical; conditions: nanoparticles comprising the lipid
Protocol: A Zetasizer Nano ZS (Malvern Instruments Ltd, Malvern, Worcestershire, UK) can be used to determine the particle size, the polydispersity index (PDI) and the zeta potential of the nanoparticle compositions in 1×PBS in determining particle size and 15 mM PBS in determining zeta potential.
Lipid nanoparticles (e.g., empty LNPs or loaded LNPs) may be characterized by a variety of methods. For example, microscopy (e.g., transmission electron microscopy or scanning electron microscopy) may be used to examine the morphology and size distribution of a nanoparticle composition. Dynamic light scattering or potentiometry (e.g., potentiometric titrations) may be used to measure zeta potentials. Dynamic light scattering may also be utilized to determine particle sizes. Instruments such as the Zetasizer Nano ZS (Malvern Instruments Ltd, Malvern, Worcestershire, UK) may also be used to measure multiple characteristics of a nanoparticle composition, such as particle size, polydispersity index, and zeta potential.
as §1

CD-1 mice = test: Expression of hEPO induced by LNPs (mRNA encoding hEPO) administered to mice; type: in vivo; conditions: serum, 6 h after intravenous injection; for Avg. hEPO Concentration (mIU/mL): Table 4b, ELLA Simple Plex Assay
Protocol: In some embodiments, hEPO concentrations were determined using an […] (ELLA) Simple Plex Assay (ProteinSimple) with a Human Erythroprotein cartridge. Standards for this assay are calibrated according to the 2. IRP WHO preparation. Nanoparticle compositions including mRNA are useful in the evaluation of the efficacy and usefulness of various formulations for the delivery of therapeutic and/or prophylactics. Higher levels of protein expression induced by administration of a composition including an mRNA will be indicative of higher mRNA translation and/or nanoparticle composition mRNA delivery efficiencies. As the non-RNA components are not thought to affect translational machineries themselves, a higher level of protein expression is likely indicative of a higher efficiency of delivery of the therapeutic and/or prophylactic by a given nanoparticle composition relative to other nanoparticle compositions or the absence thereof.
To assess potency of expression of lipids of the disclosure, the protein expression (hEPO) following administration of a nanoparticle comprising a lipid of the disclosure (e.g., a loaded LNP) to mice was measured.
Lipid nanoparticles (LNPs) including DSPC as a phospholipid, cholesterol as a structural lipid, PL-II (e.g., PEG-1) as a PEG lipid, a lipid according to Formula (I-1), (I), (I-A), (I-A1), (I-A2), (I-A3), or (I-A4), and an mRNA encoding hEPO were intravenously administered to CD-1 mice. The concentration of hEPO in serum was tested at 6 h after injection.

SMILES: CCCCCCCCC(CCCCCCCC)OC(=O)CCCCCCCN(CCCCCCCC(=O)OCCC(CCCC)CCCC)CCCNc1n[s+]([O-])nc1NC (stereo not drawn) [Compound 1]
- Apparent pKa [1]: 7.187
- % EE ([2]; Table 2a): 98.1%
- % EE ([2]; Table 3): 97.9%
- Lipid nanoparticle surface hydrophobicity (N-GP*) [3]: 1.07
- PDI ([4]; Table 2a): 0.342
- Diameter (nm) ([4]; Table 2a, DSPC, cholesterol, PEG lipid): 69.7 nm
- Diameter (nm) ([4]; Table 3): 63.3 nm
- PDI ([4]; Table 3): 0.083
- Avg. hEPO Concentration (mIU/mL) ± Avg. SD (CD-1 mice; Table 4a): 7.26E+06 ± 1.51E+05 mIU/mL

SMILES: CCCCCCCCC(CCCCCCCC)OC(=O)CCCCCCCN(CCCCCCCC(=O)OCCC(CCCC)CCCC)CCCNC(C)=O [Compound 29]
- Avg. hEPO Concentration (mIU/mL) (CD-1 mice): 7.06E+05 mIU/mL

SMILES: CCCCCCCCC(CCCCCCCC)OC(=O)CCCCCCCN(CCCCCCCC(=O)OCCC(CCCC)CCCC)CCCNC(=O)CC [Compound 30]
- Avg. hEPO Concentration (mIU/mL) (CD-1 mice): 4.73E+06 mIU/mL

SMILES: CCCCCCCCC(CCCCCCCC)OC(=O)CCCCCCCN(CCCCCCCC(=O)OCCC(CCCC)CCCC)CCCNC(=O)C(C)C [Compound 31]
- Avg. hEPO Concentration (mIU/mL) (CD-1 mice): 2.31E+06 mIU/mL

SMILES: CCCCCCCCC(CCCCCCCC)OC(=O)CCCCCCCN(CCCCCCCC(=O)OCCC(CCCC)CCCC)CCCNC(=O)C(C)(C)C [Compound 32]
- Avg. hEPO Concentration (mIU/mL) (CD-1 mice): 1.54E+06 mIU/mL

SMILES: CCCCCCCCC(CCCCCCCC)OC(=O)CCCCCCCN(CCCCCCCC(=O)OCCC(CCCC)CCCC)CCCNC(=O)c1ccccc1 [Compound 33]
- Avg. hEPO Concentration (mIU/mL) (CD-1 mice): 1.78E+05 mIU/mL

SMILES: CCCCCCCCC(CCCCCCCC)OC(=O)CCCCCCCN(CCCCCCCC(=O)OCCC(CCCC)CCCC)CCCNC(=O)C(C)O (stereo not drawn) [Compound 35]
- Avg. hEPO Concentration (mIU/mL) (CD-1 mice): 1.54E+05 mIU/mL

SMILES: CCCCCCCCC(CCCCCCCC)OC(=O)CCCCCCCN(CCCCCCCC(=O)OCCC(CCCC)CCCC)CCCNC(=O)C1(C)CCC1 [Compound 36]
- Avg. hEPO Concentration (mIU/mL) (CD-1 mice): 1.41E+06 mIU/mL

SMILES: CCCCCCCCC(CCCCCCCC)OC(=O)CCCCCCCN(CCCCCCCC(=O)OCCC(CCCC)CCCC)CCCNC(=O)C1(CC)CC1 [Compound 37]
- Avg. hEPO Concentration (mIU/mL) (CD-1 mice): 1.39E+06 mIU/mL

SMILES: CCCCCCCCC(CCCCCCCC)OC(=O)CCCCCCCN(CCCCCCCC(=O)OCCC(CCCC)CCCC)CCCNC(=O)COC [Compound 38]
- Avg. hEPO Concentration (mIU/mL) (CD-1 mice): 6.13E+05 mIU/mL

SMILES: CCCCCCCCC(CCCCCCCC)OC(=O)CCCCCCCN(CCCCCCCC(=O)OCCC(CCCC)CCCC)CCCNC(=O)C1CC1 [Compound 39]
- Avg. hEPO Concentration (mIU/mL) (CD-1 mice): 2.93E+06 mIU/mL

SMILES: CCCCCCCCC(CCCCCCCC)OC(=O)CCCCCCCN(CCCCCCCC(=O)OCCC(CCCC)CCCC)CCCNC(=O)C1CCOCC1 [Compound 40]
- Avg. hEPO Concentration (mIU/mL) (CD-1 mice): 2.16E+06 mIU/mL

SMILES: CCCCCCCCC(CCCCCCCC)OC(=O)CCCCCCCN(CCCCCCCC(=O)OCCC(CCCC)CCCC)CCCNC(=O)C1CCCCC1 [Compound 41]
- Avg. hEPO Concentration (mIU/mL) (CD-1 mice): 1.31E+06 mIU/mL

SMILES: CCCCCCCCC(CCCCCCCC)OC(=O)CCCCCCCN(CCCCCCCC(=O)OCCC(CCCC)CCCC)CCCNC(=O)C12CCC(CC1)CC2 [Compound 42]
- Avg. hEPO Concentration (mIU/mL) (CD-1 mice): 1.02E+06 mIU/mL

SMILES: CCCCCCCCC(CCCCCCCC)OC(=O)CCCCCCCN(CCCCCCCC(=O)OCCC(CCCC)CCCC)CCCNC(=O)C1CCCO1 (stereo not drawn) [Compound 43]
- Avg. hEPO Concentration (mIU/mL) (CD-1 mice): 2.23E+06 mIU/mL

SMILES: CCCCCCCCC(CCCCCCCC)OC(=O)CCCCCCCN(CCCCCCCC(=O)OCCC(CCCC)CCCC)CCCNC(=O)C1CCOC1 (stereo not drawn) [Compound 44]
- Avg. hEPO Concentration (mIU/mL) (CD-1 mice): 1.02E+06 mIU/mL

SMILES: CCCCCCCCC(CCCCCCCC)OC(=O)CCCCCCCN(CCCCCCCC(=O)OCCC(CCCC)CCCC)CCCNC(=O)CNC(C)=O [Compound 46]
- Avg. hEPO Concentration (mIU/mL) (CD-1 mice): 3.88E+03 mIU/mL

SMILES: CC#CC(=O)NCCCN(CCCCCCCC(=O)OCCC(CCCC)CCCC)CCCCCCCC(=O)OC(CCCCCCCC)CCCCCCCC [Compound 47]
- Avg. hEPO Concentration (mIU/mL) (CD-1 mice): 1.17E+06 mIU/mL

SMILES: CCCCCCCCC(CCCCCCCC)OC(=O)CCCCCCCN(CCCCCCCC(=O)OCCC(CCCC)CCCC)CCCNC(=O)C1CCN(C(C)=O)C1 (stereo not drawn) [Compound 48]
- Avg. hEPO Concentration (mIU/mL) (CD-1 mice): 1.47E+02 mIU/mL

SMILES: CCCCCCCCC(CCCCCCCC)OC(=O)CCCCCCCN(CCCCCCCC(=O)OCCC(CCCC)CCCC)CCCNC(=O)C#CC1CC1 [Compound 50]
- Avg. hEPO Concentration (mIU/mL) (CD-1 mice): 2.60E+05 mIU/mL

SMILES: CCCCCCCCC(CCCCCCCC)OC(=O)CCCCCCCN(CCCCCCCC(=O)OCCC(CCCC)CCCC)CCCNC(=O)C1(C)CCOC1 (stereo not drawn) [Compound 55]
- Avg. hEPO Concentration (mIU/mL) (CD-1 mice): 2.61E+06 mIU/mL

SMILES: CCCCCCCCC(CCCCCCCC)OC(=O)CCCCCCCN(CCCCCCCC(=O)OCCC(CCCC)CCCC)CCCNC(=O)C1(C)CCCO1 (stereo not drawn) [Compound 56]
- Avg. hEPO Concentration (mIU/mL) (CD-1 mice): 1.17E+04 mIU/mL

SMILES: CCCCCCCCC(CCCCCCCC)OC(=O)CCCCCCCN(CCCCCCCC(=O)OCCC(CCCC)CCCC)CCCNC(=O)C1(C)CCCCC1 [Compound 58]
- Avg. hEPO Concentration (mIU/mL) (CD-1 mice): 4.17E+05 mIU/mL

SMILES: CCCCCCCCC(CCCCCCCC)OC(=O)CCCCCCCN(CCCCCCCC(=O)OCCC(CCCC)CCCC)CCCNC=O [Compound 59]
- Avg. hEPO Concentration (mIU/mL) (CD-1 mice): 3.27E+05 mIU/mL

SMILES: CCCCCCCCC(CCCCCCCC)OC(=O)CCCCCCCN(CCCCCCCC(=O)OCCC(CCCC)CCCC)CCCNC(=O)C1CN(C(C)=O)C1 [Compound 60]
- Avg. hEPO Concentration (mIU/mL) (CD-1 mice): 2.10E+02 mIU/mL
